Results published in article PMC6792352, “Limited Chemical Structural Diversity Found to Modulate Thyroid Hormone Receptor in the Tox21 Chemical Library” (Environmental Health Perspectives, 2019).
Like-named read-outs stand apart in the source and are kept apart here.

How the values were obtained:
[1] = GH3-TRE-Via cell viability, CellTiter-Fluor (TOX21_TR_LUC_GH3_Antagonist_viability, aeid 805); conditions: rat
[2] = target: T1, human TRβ ligand-binding domain (Homo sapiens, UniProt P10828); test: TRb-bla agonist mammalian one-hybrid beta-lactamase assay (TOX21_TRB_BLA_Agonist_Followup_ratio, aeid 2236); format: cell-based; design: host or cells: GeneBLAzer UAS-bla HEK 293T; conditions: for AC50: HEK 293T one-hybrid, agonist mode, read-out: TRb-bla-Ag AC50; for TRb-bla hitc: hit call from tcpl, agonist; for Emax: read-out: EMax (% of Control) trb-bla-agonist-followup-1
T1 sequence (P10828 217-461 limits assumed): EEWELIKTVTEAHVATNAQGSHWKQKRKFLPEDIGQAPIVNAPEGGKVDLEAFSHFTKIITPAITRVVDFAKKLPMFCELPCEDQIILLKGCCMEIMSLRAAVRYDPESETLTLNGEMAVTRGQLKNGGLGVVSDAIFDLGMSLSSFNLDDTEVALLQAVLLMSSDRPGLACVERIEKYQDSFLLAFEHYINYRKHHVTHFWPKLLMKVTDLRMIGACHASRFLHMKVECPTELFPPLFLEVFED

[3] = test system: thyroid hormone receptor (endogenous TRα and TRβ); test: GH3-TRE-Ag-Followup confirmation (TOX21_TR_LUC_GH3_Agonist_Followup, aeid 2226); format: cell-based, rat; conditions: for AC50: confirmation, agonist mode, read-out: GH3-TRE-Ag-Followup AC50; for GH3-TRE-Ag-Followup hitc: hit call from tcpl
[4] = test system: thyroid hormone receptor (endogenous TRα and TRβ); test: GH3-TRE-Ag primary qHTS, luciferase reporter, agonist mode (TOX21_TR_LUC_GH3_Agonist, aeid 803); format: cell-based, rat; conditions: for GH3-TRE-Ag AC50 hitc: hit call from tcpl; for AC50: read-out: GH3-TRE-Ag AC50
[5] = test system: thyroid hormone receptor (TR); test: Classification of TR actives across characterization assays (TR-Ag / RXR-Ag; TR model binary); conditions: for Categorization Code: TR agonist characterization; for Classification: TR-Ag = TR agonist, RXR-Ag = RXR agonist
In short: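 Pharmaceuticals excluded; actives called from GH3-TRE qHTS (agonist, antagonist, viability) on 8,305 chemicals. Confirmation of 84 selected chemicals used GH3-TRE-Ag, mammalian one-hybrid TRβ and RXRα UAS-bla HEK 293T specificity screens, parental HEK293T viability, and two TR:coactivator recruitment assays.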

[6] = test system: GH3-TRE-Luc cell line
[7] = target: T2, TRα ligand-binding domain (Homo sapiens, UniProt P10827); test: TRa-coa LanthaScreen TR-FRET coactivator (SRC-2 peptide) recruitment, agonist (TOX21_TRA_COA_Agonist_Followup_ratio, aeid 2230); format: biochemical; conditions: for AC50: cell-free coactivator recruitment, read-out: TRa-coa-Ag AC50; for TRa-coa hitc: hit call from tcpl, agonist; for Emax: read-out: EMax (% of Control) tra-coa-agonist-followup-1
T2 construct: the receptor LBDs expressed as glutathione S-transferase (GST) fusion proteins; purchased
T2 sequence (P10827 163-410 isoform P10827-2 limits assumed, other chains not shown): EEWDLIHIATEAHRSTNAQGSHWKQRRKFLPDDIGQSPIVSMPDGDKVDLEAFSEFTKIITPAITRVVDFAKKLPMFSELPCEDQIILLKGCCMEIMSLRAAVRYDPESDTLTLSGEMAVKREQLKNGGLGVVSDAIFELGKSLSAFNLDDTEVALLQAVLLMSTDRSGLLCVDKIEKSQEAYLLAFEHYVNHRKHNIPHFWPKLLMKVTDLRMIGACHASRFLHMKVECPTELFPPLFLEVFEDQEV

[8] = Global cytotoxicity: eighteen Tox21 cell viability assays; format: cell-based; conditions: read-out: Global cytotoxicity AC50 median
[9] = test system: Tox21 cell viability assays (different cell types); test: as above; format: cell-based; conditions: for GLOBAL CYTOTOXICITY cytotox.median: median over Tox21 viability assays
[10] = target: T1, human TRβ ligand-binding domain; test: TRb-coa LanthaScreen TR-FRET coactivator (SRC-2 peptide) recruitment, agonist (TOX21_TRB_COA_Agonist_Followup_ratio, aeid 2244); format: biochemical; design: host or cells: GeneBLAzer UAS-bla HEK 293T; conditions: for AC50: cell-free coactivator recruitment, read-out: TRb-coa-Ag AC50; for TRb-coa hitc: hit call from tcpl, agonist; for Emax: read-out: EMax (% of Control) trb-coa-agonist-followup-1
[11] = test system: GH3-TRE-Luc cell line; test: GH3-TRE-Via cell viability, CellTiter-Fluor (TOX21_TR_LUC_GH3_Antagonist_viability, aeid 805); conditions: hit call from tcpl
[12] = target: T3, human RXRα (Homo sapiens, UniProt P19793); test: RXRa-bla-Ag mammalian one-hybrid beta-lactamase assay (TOX21_TR_RXR_BLA_Agonist_Followup_ratio, aeid 2253); format: cell-based; conditions: for AC50: HEK 293T one-hybrid, agonist mode, inactive set to 1,000, read-out: RXRa-bla-Ag AC50; for tr-followup-rxr-bla-agonist-1 hitc: hit call from tcpl
T3 construct: host or cells: GeneBLAzer UAS-bla HEK 293T
T3 sequence (P19793 227-458 limits assumed): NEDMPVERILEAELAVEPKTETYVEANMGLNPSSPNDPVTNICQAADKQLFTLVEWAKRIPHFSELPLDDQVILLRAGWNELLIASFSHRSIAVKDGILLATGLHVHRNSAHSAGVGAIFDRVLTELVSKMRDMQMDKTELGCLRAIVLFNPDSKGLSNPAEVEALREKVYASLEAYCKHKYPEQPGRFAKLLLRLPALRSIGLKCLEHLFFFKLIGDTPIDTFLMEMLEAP

[13] = in vitro; conditions: rat, gh3-tre-luc cells, AC50 (uM) modified / 1000
[14] = median over 18 Tox21 cell viability assays (Judson et al. 2016, invitrodb_v2)
[15] = # active of 18 total Tox21 viability assays
[16] = read-out: EMax (% of Control) tr-followup-rxr-bla-agonist-1

SMILES	AC50 at 24 h [1] [µM]	AC50 [2] [µM]	TRb-bla hitc [2]	EMax (% of Control) gh3-tre-agonist-followup-1_agonist [3]	AC50 [3] [µM]	GH3-TRE-Ag-Followup hitc [3]	EMax (% of Control) gh3-tre-agonist [4]	GH3-TRE-Ag AC50 hitc [4]	Categorization Code [5]	Classification [5]	AC50 [7] [µM]	TRa-coa hitc [7]	Emax [7] [%]	AC50 [8, 14] [µM]	GLOBAL CYTOTOXICITY cytotox.median [9]	AC50 [10] [µM]	TRb-coa hitc [10]	Emax [10] [%]	TR_LUC_GH3_Antagonist_viability hitc [11]	GLOBAL CYTOTOXICITY cytotox.number_Active [9, 15]	also measured
CC1=C(/C=C/C(C)=C\C=C\C(C)=C\C(=O)O)C(C)(C)CCC1 [9-cis Retinoic acid, reference compound]	> 92	> 92	0	76.0 % of Control	2.07	1	31.8 % of Control	1	RXR-Ag	RXR-Ag	> 92	0	-0.13	> 92	>92	> 92	0	-0.274			Emax [2]: 5.7%; TR_LUC_GH3_Antagonist_viability hitc ([6]; rat, 24 h): 0; GLOBAL CYTOTOXICITY cytotox.number_Active [9]: 0
CC(C)(C)CC(C)(C)c1ccc(O)c(Cc2ccc(Cl)cc2Cl)c1 [Clofoctol, reference compound]	8.04	> 92	0	34.4 % of Control	3	1	23.6 % of Control	1	RXR-Ag	RXR-Ag	8.92	1	55.5	16.7	16.7	8.93	1	64.9	1	16	AC50 [12]: 6.8 µM; tr-followup-rxr-bla-agonist-1 hitc [12]: 1; Emax [12, 16]: 36.1%; Emax ([12]; read-out: EMax in RXR assay): 36%
N#CC(c1ccc(Cl)cc1)c1c(Cl)cc(-n2ncc(=O)[nH]c2=O)cc1Cl (stereo not drawn) [Diclazuril]	> 92																				AC50 ([4]; antagonist candidates, inactive samples arbitrarily set to AC50=1,000 μM): > 92 µM; cytotoxicity in GH3 viability assay [6]: lacked cytotoxicity; CC50 at 24 h [13]: > 50 µM; AC50 ([8]; median over 18 Tox21 cell viability assays, inactive set to 1,000): 33 µM; Active in global cytotoxicity assays (%) [9]: 33.3%; active rate in Tox21 viability/cytotoxicity assays [9]: 33%
C[C@]12CC[C@H]3C(=CCc4cc(O)ccc43)[C@@H]1CCC2=O [Equilin, reference compound]	85.1	> 92	0	6.3 % of Control	> 92	0	90.8 % of Control	1	RXR-Ag	RXR-Ag	> 92	0	1.7	> 92	>92	> 92	0	-0.4	1	0	Emax [2]: 13.5%; AC50 [12]: 0.986 µM; tr-followup-rxr-bla-agonist-1 hitc [12]: 1; Emax [12, 16]: 61.3%
N[C@@H](Cc1cc(I)c(Oc2cc(I)c(O)c(I)c2)c(I)c1)C(=O)O [Levothyroxine, reference compound]	> 92			100.3 % of Control		1	117.2 % of Control	1	TR-Ag	TR-Ag		1	171	> 92	>92				0	0	AC50 ([4]; primary qHTS, agonist mode, 24 h, top concentration 92 μM): 0.0061 µM; AC50 [12]: 1.36 µM; tr-followup-rxr-bla-agonist-1 hitc [12]: 0; Emax [12, 16]: 21.2%
O=C(O)Cc1cc(I)c(Oc2cc(I)c(O)c(I)c2)c(I)c1 [Tetrac, 3,3ʹ,5,5ʹ-tetraiodothyroacetic acid]	51.3	0.0209	1	123.6 % of Control	0.006	1	113.5 % of Control	1	TR-Ag	TR-Ag	0.248	1	153	35.7	35.7	0.227	1	122	1	5	Emax [2]: 204%; TR_LUC_GH3_Agonist_EMAX (% Control) ([4]; Table S5): 105.7 % Control; tr-followup-rxr-bla-agonist-1 hitc [12]: 1; Emax [12, 16]: 61.6%
